Measured values as given in patent US20210177778A1, “EXOSOME PRODUCTION PROMOTER” (DAICEL CORPORATION, priority 2017, published 2021).

Test system: Human neuroblastoma-derived SH-SY5Y cell
Experiment: Number of exosome particles released by SH-SY5Y cells after sphingolipid addition (qNano)
Type: cell-based
Conditions: 10 μM sphingolipid, 24 hours, particles per mg cell protein
Protocol: Human neuroblastoma-derived SH-SY5Y cell was used as the cultured cell. After the cell was inoculated in a 6-well plate at 2.5×10^5 cells/well together with a medium (50% Ham's F12/50% E-MEM) and cultured at 37° C. for 24 hours, the animal ceramide (Cer), sphingomyelin (SM), or glucosylceramide (GuCer) sphingolipid was each added to each well. The sphingolipid was suspended in a serum-free medium (50% Ham's F12/50% E-MEM) containing 3% bovine serum albumin (BSA), and added so that the concentration in the well was 10 μM. The control was performed when the added amount of sphingolipid was 0 μM. […]
The exosome recovered by the centrifugation method was suspended in a HEPES/KCl buffer, and then the number of particles was measured with a nanoparticle analyzer qNano (Izon Inc.). The measured value was expressed as the number of particles per protein mass (mg) of the derived cell calculated by the BCA method. […]
Experimental Example 2 was performed under the same conditions as in the above Experimental Example 1 except that the konjac-derived glucosylceramide (kGluCer) or the konjac-derived ceramide (kCer) are used as the sphingolipid and sphingolipids having concentrations of 5 μM, 7.5 μM, or 10 μM, respectively, were added to the cell in place of a concentration of 0 μM (control), and the number of exosome particles was measured.

SMILES: CCCCCCCCCCCCC/C=C/[C@@H](O)[C@H](CO)NC(=O)CCCCC [C6 ceramide, N-hexanoyl-D-erythro-sphingosine]
- number of exosome particles compared to the control: further promoted

SMILES: CCCCCCCCCCCCC/C=C/[C@@H](O)[C@H](CO)NC(=O)CCCCCCCCCCCCCCCCC [C18 ceramide, N-stearoyl-D-erythro-sphingosine]
- number of exosome particles compared to the control: further promoted
